Test system: IMQ-induced mouse psoriasis model
Assay: Pharmacodynamic test in the IMQ-induced mouse psoriasis model
Format: in vivo, female Balb/c mice
Parameters: key to Skin PASI score Erythema / Skin PASI score Scaling / Skin PASI score Thickness: PASI component score, 0-4 points; key to Skin PASI Total Score: sum of erythema, scaling, thickness scores (each 0-4); key to Skin pathological score: sum of histopathology criterion points
Settings: for Epidermal thickness / IL-6 content in skin (ELISA) / Skin pathological score / Spleen weight / Spleen weight/body weight (spleen index) / TNF-alpha content in skin (ELISA): after 14 days of treatment
From the text: The purpose of this test was to evaluate the pharmacodynamics of Compound (I) in the IMQ (5% imiquimod cream cream)-induced mouse psoriasis model. One of the clinical adverse effects of imiquimod is to induce the onset of psoriasis.
• Test medicament: Compound (I) • Positive control medicament: dexamethasone (Dex) • Vehicle: 0.4% Tween 80/0.5% methylcellulose.
• female Balb/c mice aged 5-6 weeks, number: 70.
The animals were randomly divided into seven groups according to the body weights on the day before the start of the experiment.
The animals were shaved on their back one day before applying the medicament, forming a skin exposure area having a size of about 2 cm×3 cm. The mice were induced by IMQ, and applied with 62.5 mg of 5% imiquimod cream on the bare back and the right ear at regular intervals every day for 14 days. Mice in the normal control group were applied with vaseline on the bare back and the right ear at regular intervals every day.
The skin thickness was measured daily from the first day of the test until the end of the test.
The skin thickness measurement method was as follows: the back skin and the subcutaneous tissue of the mouse were pinched with the thumb and the index finger of the left hand in the same direction as the mouse body; the skinfold thickness was measured 1 cm away from the pinched part of the left hand (near the center of the molding part) with a digital thickness gauge (with millesimal reading) held in the right hand (model BK-3281, manufacturer: Shanghai Niuhui). The thickness was in mm, and the actual thickness was the half of the measured thickness (the skin thickness=the measured value/2).
The ear thickness was measured daily (at the center of the auricle).
Skin photographs were taken daily from the first day of the test until the end of the test.
The clinical symptoms were evaluated with the PASI evaluation standard from three indicators of the erythema (Erythema), the scale (Scaling) and the skin thickness (Thickness), and scored with 0-4 points. The total score was obtained by summing the three scores. The PASI evaluation standard was as follows: 0, asymptomatic; 1, mild; 2, moderate; 3, severe; 4, extremely severe.
Erythema: 0—no erythema visible; 1—light red; 2—red; 3—dark red; 4—extremely dark red.
Scaling: 0—no visible scale on the skin surface; 1—part of the skin lesion surface covered with scales; 2—most of the skin lesion surface covered with scales; 3—almost all of the skin lesion region covered with scales; 4—all of the skin lesion region covered with scales.
Dryness and pruritus are not included in the total score.
On the 14th day of the test, the spleen weight was collected.
After the test, all mice were euthanized by excessive inhalation of carbon dioxide. The skin was collected and divided into four parts, one of which was fixed in a tissue fixative solution for 24 hours for the pathological is detection. It was dehydrated, then embedded in paraffin and made into 4-micron sections. Skin sections were stained with hematoxylin eosin to observe the infiltration of the stratum corneum, the epidermal layer, the dermis layer and the inflammatory cell. When measuring the thickness of the epidermal layer, the stained skin sections were scanned with a Leca Aperio CS2 scanner at 200×magnification, and then the histopathological changes were observed and scored.
The specific criteria of the pathological score were as follows: munro microabscess found in the epidermal layer 2.0 points; hyperkeratosis 0.5 points; parakeratosis 1.0 points; the thinning or disappearing of the granular layer 1.0 points; the thickening of acanthosis 1.0 points; the extension and fluctuation of cuticular process 0.5, 1.0 and 1.5 points respectively according to the mild, moderate and severe degrees. […]

NC(=O)c1cnc(Nc2ccc3c(c2)OC[C@H]2CN(S(=O)(=O)C4CC4)CCN32)nc1NC1CC1 [Compound (I), (R)-4-(cyclopropylamino)-2-((3-(cyclopropylsulfonyl)-1,2,3,4,4a,5-hexahydrobenzo[b]pyrazolo[1,2-d][1,4]oxazin-8-yl)amino)pyrimidine-5-arboxamide]
Ear thickness Left (3 mpk PO bid, 1st Day): 0.15 ± 0.00 mm | Ear thickness Right (3 mpk PO bid, 1st Day): 0.15 ± 0.00 mm | Ear thickness Right-Left (3 mpk PO bid, 1st Day): 0.00 ± 0.00 mm | Skin PASI Total Score (3 mpk PO bid, 1st Day): 0.00 ± 0.00 | Skin PASI score Erythema (3 mpk PO bid, 1st Day): 0.00 ± 0.00 | Skin PASI score Scaling (3 mpk PO bid, 1st Day): 0.00 ± 0.00 | Skin PASI score Thickness (3 mpk PO bid, 1st Day): 0.00 ± 0.00 | Skin thickness (3 mpk PO bid, 1st Day): 0.32 ± 0.00 mm | Ear thickness Left (3 mpk PO bid, 14th Day): 0.16 ± 0.00 mm | Ear thickness Right (3 mpk PO bid, 14th Day): 0.48 ± 0.01 mm | Ear thickness Right-Left (3 mpk PO bid, 14th Day): 0.32 ± 0.01 mm | Skin PASI Total Score (3 mpk PO bid, 14th Day): 8.10 ± 0.23 | Skin PASI score Erythema (3 mpk PO bid, 14th Day): 3.00 ± 0.00 | Skin PASI score Scaling (3 mpk PO bid, 14th Day): 2.30 ± 0.15 | Skin PASI score Thickness (3 mpk PO bid, 14th Day): 2.80 ± 0.13 | Skin thickness (3 mpk PO bid, 14th Day): 0.51 ± 0.01 mm | Epidermal thickness (3 mpk PO bid): 136.10 ± 5.96 μm | IL-6 content in skin (ELISA) (3 mpk PO bid): 554.74 ± 88.14 pg/g | Skin pathological score (3 mpk PO bid): 7.75 ± 0.39 | Spleen weight (3 mpk PO bid): 231.44 ± 12.72 mg | Spleen weight/body weight (spleen index) (3 mpk PO bid): 14.46 ± 0.71 mg/g | TNF-alpha content in skin (ELISA) (3 mpk PO bid): 1191.74 ± 124.81 pg/g | Ear thickness Left (10 mpk PO bid, 1st Day): 0.14 ± 0.00 mm | Ear thickness Right (10 mpk PO bid, 1st Day): 0.14 ± 0.00 mm | Ear thickness Right-Left (10 mpk PO bid, 1st Day): 0.00 ± 0.00 mm | Skin PASI Total Score (10 mpk PO bid, 1st Day): 0.00 ± 0.00 | Skin PASI score Erythema (10 mpk PO bid, 1st Day): 0.00 ± 0.00 | Skin PASI score Scaling (10 mpk PO bid, 1st Day): 0.00 ± 0.00 | Skin PASI score Thickness (10 mpk PO bid, 1st Day): 0.00 ± 0.00 | Skin thickness (10 mpk PO bid, 1st Day): 0.32 ± 0.00 mm | Ear thickness Left (10 mpk PO bid, 14th Day): 0.15 ± 0.00 mm | Ear thickness Right (10 mpk PO bid, 14th Day): 0.44 ± 0.00 mm | Ear thickness Right-Left (10 mpk PO bid, 14th Day): 0.28 ± 0.00 mm | Skin PASI Total Score (10 mpk PO bid, 14th Day): 7.70 ± 0.60 | Skin PASI score Erythema (10 mpk PO bid, 14th Day): 2.90 ± 0.10 | Skin PASI score Scaling (10 mpk PO bid, 14th Day): 2.40 ± 0.27 | Skin PASI score Thickness (10 mpk PO bid, 14th Day): 2.40 ± 0.27 | Skin thickness (10 mpk PO bid, 14th Day): 0.53 ± 0.02 mm | Epidermal thickness (10 mpk PO bid): 131.63 ± 7.15 μm | IL-6 content in skin (ELISA) (10 mpk PO bid): 641.83 ± 96.28 pg/g | Skin pathological score (10 mpk PO bid): 7.45 ± 0.80 | Spleen weight (10 mpk PO bid): 182.01 ± 9.11 mg | Spleen weight/body weight (spleen index) (10 mpk PO bid): 11.71 ± 0.56 mg/g | TNF-alpha content in skin (ELISA) (10 mpk PO bid): 1432.02 ± 152.77 pg/g | Ear thickness Left (30 mpk PO bid, 1st Day): 0.14 ± 0.00 mm | Ear thickness Right (30 mpk PO bid, 1st Day): 0.14 ± 0.00 mm | Ear thickness Right-Left (30 mpk PO bid, 1st Day): 0.00 ± 0.00 mm | Skin PASI Total Score (30 mpk PO bid, 1st Day): 0.00 ± 0.00 | Skin PASI score Erythema (30 mpk PO bid, 1st Day): 0.00 ± 0.00 | Skin PASI score Scaling (30 mpk PO bid, 1st Day): 0.00 ± 0.00 | Skin PASI score Thickness (30 mpk PO bid, 1st Day): 0.00 ± 0.00 | Skin thickness (30 mpk PO bid, 1st Day): 0.32 ± 0.00 mm | Ear thickness Left (30 mpk PO bid, 14th Day): 0.16 ± 0.00 mm | Ear thickness Right (30 mpk PO bid, 14th Day): 0.41 ± 0.01 mm | Ear thickness Right-Left (30 mpk PO bid, 14th Day): 0.26 ± 0.01 mm | Skin PASI Total Score (30 mpk PO bid, 14th Day): 5.50 ± 0.31 | Skin PASI score Erythema (30 mpk PO bid, 14th Day): 2.90 ± 0.10 | Skin PASI score Scaling (30 mpk PO bid, 14th Day): 1.20 ± 0.13 | Skin PASI score Thickness (30 mpk PO bid, 14th Day): 1.40 ± 0.16 | Skin thickness (30 mpk PO bid, 14th Day): 0.50 ± 0.01 mm | Epidermal thickness (30 mpk PO bid): 121.75 ± 8.17 μm | IL-6 content in skin (ELISA) (30 mpk PO bid): 638.09 ± 59.63 pg/g | Skin pathological score (30 mpk PO bid): 5.55 ± 0.90 | Spleen weight (30 mpk PO bid): 146.81 ± 7.71 mg | Spleen weight/body weight (spleen index) (30 mpk PO bid): 9.27 ± 0.47 mg/g | TNF-alpha content in skin (ELISA) (30 mpk PO bid): 1236.41 ± 100.8 pg/g | Ear thickness Left (60 mpk PO bid, 1st Day): 0.14 ± 0.00 mm | Ear thickness Right (60 mpk PO bid, 1st Day): 0.14 ± 0.00 mm | Ear thickness Right-Left (60 mpk PO bid, 1st Day): 0.00 ± 0.00 mm | Skin PASI Total Score (60 mpk PO bid, 1st Day): 0.00 ± 0.00 | Skin PASI score Erythema (60 mpk PO bid, 1st Day): 0.00 ± 0.00 | Skin PASI score Scaling (60 mpk PO bid, 1st Day): 0.00 ± 0.00 | Skin PASI score Thickness (60 mpk PO bid, 1st Day): 0.00 ± 0.00 | Skin thickness (60 mpk PO bid, 1st Day): 0.33 ± 0.01 mm | Ear thickness Left (60 mpk PO bid, 14th Day): 0.15 ± 0.00 mm | Ear thickness Right (60 mpk PO bid, 14th Day): 0.38 ± 0.01 mm | Ear thickness Right-Left (60 mpk PO bid, 14th Day): 0.22 ± 0.01 mm | Skin PASI Total Score (60 mpk PO bid, 14th Day): 4.60 ± 0.34 | Skin PASI score Erythema (60 mpk PO bid, 14th Day): 2.00 ± 0.15 | Skin PASI score Scaling (60 mpk PO bid, 14th Day): 1.20 ± 0.13 | Skin PASI score Thickness (60 mpk PO bid, 14th Day): 1.40 ± 0.16 | Skin thickness (60 mpk PO bid, 14th Day): 0.43 ± 0.02 mm | Epidermal thickness (60 mpk PO bid): 113.28 ± 6.95 μm | IL-6 content in skin (ELISA) (60 mpk PO bid): 499.72 ± 95.81 pg/g | Skin pathological score (60 mpk PO bid): 5.05 ± 0.88 | Spleen weight (60 mpk PO bid): 125.73 ± 4.63 mg | Spleen weight/body weight (spleen index) (60 mpk PO bid): 8.01 ± 0.28 mg/g | TNF-alpha content in skin (ELISA) (60 mpk PO bid): 1188.81 ± 159.63 pg/g

Source: patent US20240165123A1, “USE OF A COMPOUND CONTAINING A TRICYCLIC HETEROARYL GROUP” (CSPC Zhongqi Pharmaceutical Technology (Shijiazhuang) Co., …, priority 2021, published 2024)
